Where two headings read alike, the source gives them in different places.
What was measured:
[1] = molecular target: T1, human CB2 receptors (Homo sapiens, UniProt P34972); test: functional cAMP assay, CHO cells expressing human CB2; type: cell-based
T1 construct: expressed in transfected cells; host or cells: CHO cells
Method: The growth medium was exchanged with Krebs Ringer Bicarbonate buffer with 1 mM IBMX and incubated at 30° C. for 30 min. Compounds were added to a final assay volume of 100 μl and incubated for 30 min at 30° C. […] The time-resolved energy transfer is measured by a TRF reader (Evotec Technologies GmbH), equipped with a ND:YAG laser as excitation source. The plate is measured twice with the excitation at 355 nm and at the emission with a delay of 100 ns and a gate of 100 ns, total exposure time 10 s at 730 (bandwidth 30 nm) or 645 nm (bandwidth 75 nm), respectively.
EC50 values were determined using Activity Base analysis (ID Business Solution, Limited).

[2] = molecular target: T2, human CB1 receptors (Homo sapiens, UniProt P21554); test: functional cAMP assay, CHO cells expressing human CB1; type: cell-based
T2 construct: expressed in transfected cells; host or cells: CHO cells
Method: CHO cells expressing human CB1 or CB2 receptors are seeded 17-24 hours prior to the experiment 50.000 cells per well in a black 96 well plate with flat clear bottom (Corning Costar #3904) in DMEM (Invitrogen No. 31331), 1×HT supplement, with 10% fetal calf serum and incubated at 5% CO2 and 37° C. in a humidified incubator. The growth medium was exchanged with Krebs Ringer Bicarbonate buffer with 1 mM IBMX and incubated at 30° C. for 30 min. Compounds were added to a final assay volume of 100 μl and incubated for 30 min at 30° C. Using the cAMP-Nano-TRF detection kit the assay (Roche Diagnostics) was stopped by the addition of 50 μl lysis reagent (Tris, NaCl, 1.5% Triton X100, 2.5% NP40, 10% NaN3) and 50 μl detection solutions (20 μM mAb Alexa700-cAMP 1:1, and 48 μM Ruthenium-2-AHA-cAMP) and shaken for 2 h at room temperature. The time-resolved energy transfer is measured by a TRF reader (Evotec Technologies GmbH), equipped with a ND:YAG laser as excitation source. The plate is measured twice with the excitation at 355 nm and at the emission with a delay of 100 ns and a gate of 100 ns, total exposure time 10 s at 730 (bandwidth 30 nm) or 645 nm (bandwidth 75 nm), respectively. The FRET signal is calculated as follows: FRET=T730-Alexa730-P(T645-B645) with P=Ru730-B730/Ru645-B645, where T730 is the test well measured at 730 nM, T645 is the test well measured at 645 nm, B730 and B645 are the buffer controls at 730 nm and 645 nm, respectively. cAMP content is determined from the function of a standard curve spanning from 10 μM to 0.1 nM cAMP.
EC50 values were determined using Activity Base analysis (ID Business Solution, Limited). The EC50 values for a wide range of cannabinoid agonists generated from this assay were in agreement with the values published in the scientific literature.

[3] = CHO cells expressing human CB2, read-out: Ec50:CB2 - hu cAMP
[4] = CHO cells expressing human CB1, read-out: Ec50:CB1 - hu cAMP

T2 sequence (P21554 whole entry): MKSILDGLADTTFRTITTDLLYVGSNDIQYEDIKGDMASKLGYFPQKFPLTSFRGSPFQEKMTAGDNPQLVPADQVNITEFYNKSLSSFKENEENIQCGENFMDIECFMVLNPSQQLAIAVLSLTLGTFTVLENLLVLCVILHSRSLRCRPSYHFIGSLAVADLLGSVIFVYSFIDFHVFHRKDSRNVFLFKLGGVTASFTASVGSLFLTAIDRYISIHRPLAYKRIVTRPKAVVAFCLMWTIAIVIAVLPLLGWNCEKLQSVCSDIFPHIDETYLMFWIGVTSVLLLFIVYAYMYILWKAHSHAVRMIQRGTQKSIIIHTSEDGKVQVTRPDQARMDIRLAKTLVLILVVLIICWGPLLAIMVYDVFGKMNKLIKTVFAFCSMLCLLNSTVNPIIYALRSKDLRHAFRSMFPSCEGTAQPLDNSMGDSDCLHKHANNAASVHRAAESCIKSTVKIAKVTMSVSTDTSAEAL
T1 sequence (P34972 whole entry): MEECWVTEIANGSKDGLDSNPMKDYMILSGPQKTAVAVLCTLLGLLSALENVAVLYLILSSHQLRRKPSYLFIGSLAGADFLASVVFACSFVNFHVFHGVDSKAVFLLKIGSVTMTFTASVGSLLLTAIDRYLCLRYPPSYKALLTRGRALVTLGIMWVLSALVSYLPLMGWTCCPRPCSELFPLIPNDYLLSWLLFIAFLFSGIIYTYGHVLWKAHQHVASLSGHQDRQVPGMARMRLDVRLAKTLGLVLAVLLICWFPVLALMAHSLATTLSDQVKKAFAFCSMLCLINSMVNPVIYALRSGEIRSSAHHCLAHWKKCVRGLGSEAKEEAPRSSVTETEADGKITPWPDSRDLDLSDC

| EC50 [1, 3] [nM] | Compound | EC50 [2, 4] [µM] | EC50 [2] [µM] | EC50 [1] [nM] |
| --- | --- | --- | --- | --- |
| 69.4 | O=C(N1CCc2ccccc2C1)C12CC3CC(CC(C3)C1)C2 [Example 1, Adamantan-1-yl-(3,4-dihydro-1H-isoquinolin-2-yl)-methanone] | > 10 |  |  |
| 70.6 | COC(=O)c1ccc2c(c1)CCN2C(=O)C12CC3CC(CC(C3)C1)C2 [Example 19, 1-(Adamantane-1-carbonyl)-2,3-dihydro-1H-indole-5-carboxylic acid methyl ester] | > 10 |  |  |
|  | O=C(N1CCc2ccc([N+](=O)[O-])cc21)C12CC3CC(CC(C3)C1)C2 [Example 13, Adamantan-1-yl-(6-nitro-2,3-dihydro-indol-1-yl)-methanone] |  | > 10 | 19.4 |
|  | O=C(C1[C@H]2C[C@@H]3C[C@@H](C[C@H]1C3)C2)N1CCc2ccccc21 (stereo partly drawn) [Example 37, Adamantan-2-yl-(2,3-dihydro-indol-1-yl)-methanone] |  | > 10 | 6.7 |
| 19.9 | O=C(N1Cc2ccccc2C1)C12CC3CC(CC(C3)C1)C2 [Example 21, Adamantan-1-yl-(1,3-dihydro-isoindol-2-yl)-methanone] |  |  |  |
|  | COc1cccc2c1N(C(=O)C13CC4CC(CC(C4)C1)C3)CC2 [Example 22, Adamantan-1-yl-(7-methoxy-2,3-dihydro-indol-1-yl)-methanone] |  | > 10 | 26.4 |
| 41.7 | O=C(N1Cc2ccc(F)cc2C1)C12CC3CC(CC(C3)C1)C2 [Example 45, Adamantan-1-yl-(5-fluoro-1,3-dihydro-isoindol-2-yl)-methanone] | > 10 |  |  |
|  | O=C(N1CCc2ccc(C(F)(F)F)cc21)C12CC3CC(CC(C3)C1)C2 [Example 17, Adamantan-1-yl-(6-trifluoromethyl-2,3-dihydro-indol-1-yl)-methanone] |  |  | 14.6 |
|  | CC(C)N1CCN(C(=O)C23CC4CC(CC(C4)C2)C3)c2ccccc21 [Example 32, Adamantan-1-yl-(4-isopropyl-3,4-dihydro-2H-quinoxalin-1-yl)-methanone] |  | > 10 | 6.2 |
|  | COC(=O)c1cccc2c1CCN2C(=O)[C@]12C[C@H]3C[C@H](C[C@H](C3)C1)C2 [Example 24, 1-(Adamantane-1-carbonyl)-2,3-dihydro-1H-indole-4-carboxylic acid methyl ester] |  | > 10 | 42.1 |
| 82 | O=C(N1CCc2cc([N+](=O)[O-])ccc21)C12CC3CC(CC(C3)C1)C2 [Example 14, Adamantan-1-yl-(5-nitro-2,3-dihydro-indol-1-yl)-methanone] | > 10 |  |  |
| 58.9 | O=C(N1Cc2cccc(F)c2C1)C12CC3CC(CC(C3)C1)C2 [Example 44, Adamantan-1-yl-(4-fluoro-1,3-dihydro-isoindol-2-yl)-methanone] | > 10 |  |  |
|  | CCOC1CCN(C(=O)C23CC4CC(CC(C4)C2)C3)c2ccccc21 (stereo not drawn) [Example 12, Adamantan-1-yl-(4-ethoxy-3,4-dihydro-2H-quinolin-1-yl)-methanone] |  |  | 18.6 |
| 594 | O=C1C2CC3CC1CC(C(=O)N1CCc4ccccc41)(C3)C2 [Example 40, 5-(2,3-Dihydro-indole-1-carbonyl)-adamantan-2-one] | > 10 |  |  |
| 10.4 | Cc1ccc2c(c1)CCN2C(=O)C12CC3CC(CC(C3)C1)C2 [Example 26, Adamantan-1-yl-(5-methyl-2,3-dihydro-indol-1-yl)-methanone] | > 10 |  |  |
|  | O=C(N1Cc2cc(Cl)c(N3CCOCC3)cc2C1)C12CC3CC(CC(C3)C1)C2 [Example 43, Adamantan-1-yl-(5-chloro-6-morpholin-4-yl-1,3-dihydro-isoindol-2-yl)-methanone] |  | > 10 | 82.2 |
|  | CCCCOC1CCN(C(=O)C23CC4CC(CC(C4)C2)C3)c2ccccc21 (stereo not drawn) [Example 34, Adamantan-1-yl-(4-butoxy-3,4-dihydro-2H-quinolin-1-yl)-methanone] |  | > 10 | 7.2 |
|  | Cc1cccc2c1N(C(=O)C13CC4CC(CC(C4)C1)C3)CC2 [Example 28, Adamantan-1-yl-(7-methyl-2,3-dihydro-indol-1-yl)-methanone] |  |  | 55.7 |
| 492 | O=C(N1CCc2ccccc21)C12CC3CC(CC(O)(C3)C1)C2 [Example 41, (2,3-Dihydro-indol-1-yl)-(3-hydroxy-adamantan-1-yl)-methanone] |  |  |  |
| 27.2 | COC1CCN(C(=O)C23CC4CC(CC(C4)C2)C3)c2ccccc21 (stereo not drawn) [Example 36, Adamantan-1-yl-(4-methoxy-3,4-dihydro-2H-quinolin-1-yl)-methanone] |  |  |  |
| 17.6 | O=C(N1CCc2cc(F)c(F)cc21)C12CC3CC(CC(C3)C1)C2 [Example 39, Adamantan-1-yl-(5,6-difluoro-2,3-dihydro-indol-1-yl)-methanone] | > 10 |  |  |
| 22.1 | O=C(NC12CC3CC(CC(C3)C1)C2)N1Cc2ccccc2C1 [Example 42, 1,3-Dihydro-isoindole-2-carboxylic acid adamantan-1-ylamide] |  |  |  |
|  | O=C(N1CCc2cc(Br)ccc21)C12CC3CC(CC(C3)C1)C2 [Example 15, Adamantan-1-yl-(5-bromo-2,3-dihydro-indol-1-yl)-methanone] |  | > 10 | 11.5 |
|  | COCCOC1CCN(C(=O)C23CC4CC(CC(C4)C2)C3)c2ccccc21 (stereo not drawn) [Example 33, Adamantan-1-yl-[4-(2-methoxy-ethoxy)-3,4-dihydro-2H-quinolin-1-yl]-methanone] |  |  | 21.3 |
| 4.3 | Cc1cccc2c1CCN2C(=O)C12CC3CC(CC(C3)C1)C2 [Example 30, Adamantan-1-yl-(4-methyl-2,3-dihydro-indol-1-yl)-methanone] |  |  |  |

| Compound | EC50 [1, 3] [nM] | EC50 [2, 4] [µM] | EC50 [2] [µM] | EC50 [1] [nM] |
| --- | --- | --- | --- | --- |
| O=C(N1CCc2cc(F)ccc21)C12CC3CC(CC(C3)C1)C2 [Example 18, Adamantan-1-yl-(5-fluoro-2,3-dihydro-indol-1-yl)-methanone] | 4.6 |  |  |  |
| O=C1CCN(C(=O)C23CC4CC(CC(C4)C2)C3)c2ccccc21 [Example 3, 1-(Adamantane-1-carbonyl)-2,3-dihydro-1H-quinolin-4-one] | 330 | > 10 |  |  |
| CC(C)C1(CO)CCN(C(=O)C23CC4CC(CC(C4)C2)C3)c2ccccc21 (stereo not drawn) [Example 6, Adamantan-1-yl-(4-hydroxymethyl-4-isopropyl-3,4-dihydro-2H-quinolin-1-yl)-methanone] | 400 | > 10 |  |  |
| O=C(N1CCCc2ccccc21)C12CC3CC(CC(C3)C1)C2 [Example 2, Adamantan-1-yl-(3,4-dihydro-2H-quinolin-1-yl)-methanone] | 71.6 |  |  |  |
| CC(C)OC1CCN(C(=O)C23CC4CC(CC(C4)C2)C3)c2ccccc21 (stereo not drawn) [Example 35, Adamantan-1-yl-(4-isopropoxy-3,4-dihydro-2H-quinolin-1-yl)-methanone] | 122 | > 10 |  |  |
| CC1c2ccccc2N(C(=O)C23C[C@H]4C[C@@H](C2)C[C@@H](C3)C4)C1C (stereo partly drawn) [Example 25, Adamantan-1-yl-(2,3-dimethyl-2,3-dihydro-indol-1-yl)-methanone] | 163 | > 10 |  |  |
| CC(C)(C)NC(=O)C1CCN(C(=O)C23CC4CC(CC(C4)C2)C3)c2ccccc21 (stereo not drawn) [Example 4, 1-(Adamantane-1-carbonyl)-1,2,3,4-tetrahydro-quinoline-4-carboxylic acid tert-butylamide] | 445 | > 10 |  |  |
| O=C(N1CCc2ccccc21)C12CC3CC(CC(C3)C1)C2 [Example 11, Adamantan-1-yl-(2,3-dihydro-indol-1-yl)-methanone] | 23.2 |  |  |  |
| O=C(N1CCOc2ccccc21)C12CC3CC(CC(C3)C1)C2 [Example 7, Adamantan-1-yl-(2,3-dihydro-benzo[1,4]oxazin-4-yl)-methanone] | 180 | > 10 |  |  |
| Cc1cccc2c1N(C(=O)C13CC4CC(CC(C4)C1)C3)CCC2 [Example 8, Adamantan-1-yl-(8-methyl-3,4-dihydro-2H-quinolin-1-yl)-methanone] | 277 | > 10 |  |  |
| COC(=O)C1Cc2ccccc2N(C(=O)C23CC4CC(CC(C4)C2)C3)C1 (stereo not drawn) [Example 5, 1-(Adamantane-1-carbonyl)-1,2,3,4-tetrahydro-quinoline-3-carboxylic acid methyl ester] | 221 | > 10 |  |  |
